Laboratory results published in patent US12502430B2, “Compound for photodynamic therapy of cancer, composition including same, and method for photodynamic therapy of cancer” (Pukyong National University Industry-University Cooperation …, priority 2021, dated 2025).

Experiments:
HeLa cells [1] = assay: Bio-imaging of OCl− by confocal fluorescence microscopy; type: cell-based; conditions: 10 μM, 10 minutes, then OCl− 10 minutes
Procedure: HeLa cells were treated with 10 μM NS and BS solutions, respectively. Then, HeLa cells were incubated for 10 minutes and then incubated with hypochlorous acid (OCl^−) for 10 minutes to perform hypochlorous acid (OCl^−) detection fluorescence signal and bioimaging.

[2] = UV-Vis absorption and fluorescence emission spectroscopy; type: physicochemical; conditions: in Toluene
Excerpt: The photophysical properties of the collected products were studied by UV-Vis absorption and fluorescence emission spectroscopy, and the results are shown in FIGS. 1A to 1B and Table 1. In the UV-Vis absorption spectrum, BO and NO show absorption peaks in the region of about 380 nm, and BS and NS show absorption maximum values in the region of about 435 nm. The difference in the absorption peak may be confirmed from the shape difference of the HOMO-LUMO of FIG. 2A.

HeLa cells [3] = assay: MTT photo/dark cytotoxicity assay with blue light irradiation; type: cell-based; conditions: for cell viability (dark cytotoxicity): MTT, FIGS. 3A and 3B, 20 μM printed for BS; for IC50: normoxia, after blue light irradiation, read-out: IC50 (photocytotoxicity); for cancer cell toxicity without light: working concentration; for cell death under blue light irradiation: both normoxia and hypoxia
Procedure: Cell toxicity was evaluated by treating HeLa cells with 10 μM NS and BS solutions, respectively, incubating cells for 30 minutes, and then irradiating blue light (blue LED, 80 mW/cm^2) for 5 minutes. The results are shown in FIGS. 3A to 3C and FIGS. 4A to 4D. Based on the ^1O2 generation efficiency and photostability of BS and NS of FIGS. 3A to 3C, photo/dark cytotoxicity to HeLa cells was observed using MTT (traditional methyl thiazolytetralium) assay. FIGS. 3A and 3B show viability of 85% in BS (20 μM) and 97% in NS. The introduction of the C═S bond leads to a highly efficient ISC process, improving the generation of type I and type II ROS, thereby resulting in high ^1O2 quantum yield as well as O2· production. […] NS induces higher photocytotoxicity than BS by higher oxygen quantum yield and may be utilized as a phototheranostic agent with a low IC50 value in normoxia. Further, in FIG. 3C, NS (3 μM) has a cell viability of 29.6% under a normoxia condition and a cell viability of 36.5% under a hypoxia condition (mixed gas: 5% CO2, 1% O2 and 94% N2) so as to effectively induce photocytotoxicity to HeLa cells.

HeLa cells [4] = assay: DCFH-DA ROS fluorescence imaging after blue LED irradiation; type: cell-based; conditions: 5 μM, DCFH-DA 10 μM, blue LED 5 minutes
Procedure: FIG. 4A is a diagram illustrating a fluorescence image of live HeLa cells after incubation in BS (5 μM) and DCFH-DA (10 μM) for 30 minutes, and FIG. 4C is a diagram illustrating a BS fluorescence image after light irradiation under blue LED light for 5 minutes thereafter (λ=473 nm and λem=490 to 590 nm) according to an example embodiment of the present disclosure in which these compounds were dissolved in DMSO.
FIG. 4B is a diagram illustrating s a fluorescence image of live HeLa cells after incubation in NS (5 μM) and DCFH-DA (10 μM) for 30 minutes according to an example embodiment of the present disclosure, and FIG. 4D is a diagram illustrating an NS fluorescence image after light irradiation under blue LED light for 5 minutes thereafter (λex=473 nm and λem=490 to 590 nm) in which these compounds were dissolved in DMSO.
Finally, their fluorescence is completely recovered after hypochlorite anion (OCl^−) treatment using the OCl^− probe of live HeLa cells. […] It may be confirmed that the C═S group plays an important role in the generation of type I ROS of previously unreported photosensitizers (PS).

[5] = Response and selectivity for detection of OCl− (UV-Vis and fluorescence); conditions: 20 μM; for isosbestic point in UV-vis titration with OCl−: NaClO 0 to 75 μM, PBS pH 7.4 with 50% THF; for selectivity for OCl− among ROS, RNS and metal ions: OCl− 60 μM, PBS pH 7.4/THF (5/5); for fluorescence wavelength at which intensity was read: PBS buffer 10 mM pH 7.4 containing 50% THF
Procedure: Fluorescence intensity ratios were measured for each of BS and NS in […] (10 mM, pH=7.4) containing 50% THF at the presence of OCl^− (60 μM), ROO·(1 mM), NO·(1 mM), H2O2 (1 mM), TBHP (1 mM), ONOO^− (100 μM), ·OH (200 μM) and various metal ions (200 μM): Ag^+, Hg^2+, Fe^2+, and other ions (Ni^2+, Cu^2+, Zn^2+, Cd^2+, Mg^2+, Ca^2+, Cr^3+, Mn^2+, Fe^3+, Li^+, Na^+, K^+, Cs^+). Recognition of ROS, RNS and metal cations by BS and NS was investigated through colorimetric changes, UV absorption and fluorescence emission changes in PBS 7.4 pH/THF (5/5).
Similarly, in FIG. 6C, the broad absorption band decreases in the 420 to 600 nm range of the NS solution, whereas the absorption band at 370 nm gradually increases with OCI^−-addition (a characteristic of NO).
In Scheme 3, the photophysical change by oxidative desulfurization from the C═S groups of BS and NS to the corresponding C═O groups of BO and NO by hypochlorous acid (OCl^−) may be shown.

[6] = Singlet oxygen quantum yield determination; type: physicochemical; conditions: determined with respect to Ru(bpy)3^2+; — = not observed
Excerpt: Compounds BO and NO show strong fluorescence (ΦFBO=0.71, ΦF NO=0.28), but ISC is inefficient due to weak spin-orbit coupling (SOC).

Compound | intracellular OCl− detection (HeLa cells [1]) | ΔV (Stock shift) [2] [nm] | ε × 10^3 [2] | λems [2] [nm] | cell viability (dark cytotoxicity) (HeLa cells [3]; HeLa cells) [%] | IC50 (HeLa cells [3]; HeLa cells) [µM] | cancer cell toxicity without light (HeLa cells [3]; HeLa cells) | cell death under blue light irradiation (HeLa cells [3]) | ROS generation (DCFH-DA green signal) (HeLa cells [4]) | isosbestic point in UV-vis titration with OCl− [5] [nm] | selectivity for OCl− among ROS, RNS and metal ions [5] | fluorescence wavelength at which intensity was read [5] [nm] | ΦΔ (singlet oxygen quantum yield) [6] | cell viability, hypoxia (HeLa cells [3]; HeLa cells, 3 μM, hypoxia condition (5% CO2, 1% O2 and 94% N2), light) [%] | cell viability, normoxia (HeLa cells [3]; HeLa cells, 3 μM, normoxia condition, light) [%] | ΦF (fluorescence quantum yield) ([2]; Rhodamine 6G as the standard, — = not observed)
S=c1c2cccc3cccc(c32)c2nc3ccccc3n12 [BS] | adequately detect OCl^− | 66 | 10.85 × 10^3 M^−1 cm^−1 | 495 | 85 | 5.81 | negligible cancer cell toxicity | rapidly induce cell death | may generate ROS | 403 | high selectivity | 505 | 0.66 | – | – | –
S=c1c2cccc3cccc(c32)c2nc3cc4ccccc4cc3n12 [NS] | adequately detect OCl^− | 110 | 17.87 × 10^3 M^−1 cm^−1 | 551 | 97 | 1.03 | negligible cancer cell toxicity | rapidly induce cell death | may generate ROS | 411 | high selectivity | 559 | 0.81 | 36.5 | 29.6 | –
O=c1c2cccc3cccc(c32)c2nc3ccccc3n12 [BO, reference compound] | – | 105 | 8.54 × 10^3 M^−1 cm^−1 | 488 | – | – | – | – | – | – | – | – | – | – | – | 0.71
